Converted amounts (≈) assume the structure as drawn. Read-outs that look alike come from different tables or passages of the source.
How the values were obtained:
Type in all cases: cell-based
Botrtyis cinerea (Bc) = assay: In vitro pathogen growth inhibition assay, Bc; details: 48 h
Outline: (§1)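 Spores in 17% V8 liquid medium, or 1.5 mm Rs mycelial plugs in ¼ PDB, incubated with compound; final concentration checked by OD600 for precipitation. OD readings at 24 and 48 h, blank-subtracted, plus visual ratings; value is concentration giving ≥90% growth inhibition.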

[1] = test system: Collectotrichum graminicola (Cg); assay: In vitro pathogen growth inhibition assay, Cg; details: 48 h
Outline: as §1

Diplodia maydis (Dm) = assay: In vitro pathogen growth inhibition assay, Dm; details: Stenocarpella maydis, 48 h
Outline: (§2)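 Spores of Dm, Fv and Pc were diluted in 17% V8 liquid medium; Rs used 1.5 mm mycelial plugs in ¼ PDB. Compounds from 2.5 mg/ml DMSO stocks were combined with inoculum, growth was read by OD600 at 24 and 48 h with blank subtraction, and the reported value is the concentration giving ≥90% inhibition.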

[2] = test system: Fusarium moniliforme (Fm); assay: In vitro pathogen growth inhibition assay, Fm; details: Fusarium verticillioides
Outline: as §1

[3] = test system: Fusarium virguliforme (Fv); assay: In vitro pathogen growth inhibition assay, Fv
Outline: as §2

[4] = test system: Phytophthora capsici (Pc); assay: In vitro pathogen growth inhibition assay, Pc; details: 48 h
Outline: as §2

Rhizoctonia solani (Rs) = assay: In vitro pathogen growth inhibition assay, Rs (mycelial plugs); details: Rhizoctonia solani, 48 h
Outline: as §2

Septoria tritici (St) = assay: In vitro pathogen growth inhibition assay, St; details: Zymoseptoria tritici, 48 h
Outline: as §1

[5] = ≥90% growth inhibition, 48 hours, vs 2% DMSO control, read-out: Compound Concentration (ppm) sufficient for ≥90% inhibition of Bc
[6] = ≥90% growth inhibition, 48 hours, vs 2% DMSO control, read-out: Compound Concentration (ppm) sufficient for ≥90% inhibition of Cg
[7] = ≥90% growth inhibition, 48 hours, vs 2% DMSO control, read-out: Compound Concentration (ppm) sufficient for ≥90% inhibition of Dm
[8] = ≥90% growth inhibition, 48 hours, vs 2% DMSO control, read-out: Compound Concentration (ppm) sufficient for ≥90% inhibition of Fm
[9] = ≥90% growth inhibition, 48 hours, vs 2% DMSO control, read-out: Compound Concentration (ppm) sufficient for ≥90% inhibition of Fv
[10] = ≥90% growth inhibition, 48 hours, vs 2% DMSO control, read-out: Compound Concentration (ppm) sufficient for ≥90% inhibition of Pc
[11] = ≥90% growth inhibition, mycelial plugs, 48 hours, vs 2% DMSO control, read-out: Compound Concentration (ppm) sufficient for ≥90% inhibition of Rs
[12] = ≥90% growth inhibition, 48 hours, vs 2% DMSO control, read-out: Compound Concentration (ppm) sufficient for ≥90% inhibition of St

| Structure (SMILES) | IC90 (Botrtyis cinerea (Bc); [5]) | IC90 [1, 6] | IC90 (Diplodia maydis (Dm); [7]) | IC90 [2, 8] | IC90 [3, 9] | IC90 [4, 10] | IC90 (Rhizoctonia solani (Rs); [11]) | IC90 (Septoria tritici (St); [12]) | IC90 (Botrtyis cinerea (Bc); concentration sufficient to ≥90% inhibition of growth, 48 hours vs 2% DMSO control, read-out: Compound Concentration (ppm) for ≥90% inhibition, Bc) | IC90 ([1]; concentration sufficient to ≥90% inhibition of growth, 48 hours vs 2% DMSO control, read-out: Compound Concentration (ppm) for ≥90% inhibition, Cg) | IC90 (Diplodia maydis (Dm); concentration sufficient to ≥90% inhibition of growth, 48 hours vs 2% DMSO control, read-out: Compound Concentration (ppm) for ≥90% inhibition, Dm) | IC90 ([2]; concentration sufficient to ≥90% inhibition of growth, 48 hours vs 2% DMSO control, read-out: Compound Concentration (ppm) for ≥90% inhibition, Fm) | IC90 ([3]; concentration sufficient to ≥90% inhibition of growth, 48 hours vs 2% DMSO control, read-out: Compound Concentration (ppm) for ≥90% inhibition, Fv) | IC90 ([4]; concentration sufficient to ≥90% inhibition of growth, 48 hours vs 2% DMSO control, read-out: Compound Concentration (ppm) for ≥90% inhibition, Pc) | IC90 (Rhizoctonia solani (Rs); concentration sufficient to ≥90% inhibition of growth, 48 hours vs 2% DMSO control, read-out: Compound Concentration (ppm) for ≥90% inhibition, Rs) | IC90 (Septoria tritici (St); concentration sufficient to ≥90% inhibition of growth, 48 hours vs 2% DMSO control, read-out: Compound Concentration (ppm) for ≥90% inhibition, St) |
| --- | --- | --- | --- | --- | --- | --- | --- | --- | --- | --- | --- | --- | --- | --- | --- | --- |
| COc1ccccc1[C@H](Cn1c(=O)n([C@H](C)C(=O)N(C)C(C)C)c(=O)c2c(C)c(-n3cccn3)sc21)OCCC#N [Compound I-242] | 2 µg/mL (≈ 3.46 µM) | 2 µg/mL (≈ 3.46 µM) | 2 µg/mL (≈ 3.46 µM) | 0.4 µg/mL (≈ 0.691 µM) | 2 µg/mL (≈ 3.46 µM) | > 50 µg/mL | 2 µg/mL (≈ 3.46 µM) | ≥ 50 µg/mL |  |  |  |  |  |  |  |  |
| COc1ccc(F)cc1[C@H](Cn1c(=O)n([C@@H](C)C(=O)N(C)C(C)C)c(=O)c2c(C)c(-n3cccn3)sc21)OCCC#N [Compound I-243] | 10 µg/mL (≈ 16.8 µM) | 2 µg/mL (≈ 3.35 µM) | 10 µg/mL (≈ 16.8 µM) | 2 µg/mL (≈ 3.35 µM) | 50 µg/mL (≈ 83.8 µM) | > 50 µg/mL | 2 µg/mL (≈ 3.35 µM) | ≥ 50 µg/mL |  |  |  |  |  |  |  |  |
| COc1ccc(F)cc1[C@H](Cn1c(=O)n([C@@H](C)C(=O)N(C)C(C)C)c(=O)c2c(C)c(-n3cccn3)sc21)OCCO [Compound I-244] | 2 µg/mL (≈ 3.4 µM) | 2 µg/mL (≈ 3.4 µM) | 10 µg/mL (≈ 17 µM) | 0.4 µg/mL (≈ 0.681 µM) | 2 µg/mL (≈ 3.4 µM) | 10 µg/mL (≈ 17 µM) | 0.4 µg/mL (≈ 0.681 µM) | ≥ 50 µg/mL |  |  |  |  |  |  |  |  |
| Cc1ccc(F)cc1[C@H](Cn1c(=O)n(C(C)(C)C(=O)NC(C)C)c(=O)c2c(C)c(-n3nccn3)sc21)OCCO [Compound I-245] | 0.4 µg/mL (≈ 0.698 µM) | 0.4 µg/mL (≈ 0.698 µM) | 2 µg/mL (≈ 3.49 µM) | 0.08 µg/mL (≈ 0.14 µM) | 0.08 µg/mL (≈ 0.14 µM) | 50 µg/mL (≈ 87.3 µM) | 0.08 µg/mL (≈ 0.14 µM) | ≥ 2 µg/mL |  |  |  |  |  |  |  |  |
| CCc1ccc(F)cc1[C@H](Cn1c(=O)n(C(C)(C)C(=O)NC(C)C)c(=O)c2c(C)c(-n3nccn3)sc21)OCCOC [Compound I-247] | 0.4 µg/mL (≈ 0.666 µM) | 0.4 µg/mL (≈ 0.666 µM) | 2 µg/mL (≈ 3.33 µM) | 0.08 µg/mL (≈ 0.133 µM) | 0.4 µg/mL (≈ 0.666 µM) | > 50 µg/mL | 2 µg/mL (≈ 3.33 µM) | ≥ 10 µg/mL |  |  |  |  |  |  |  |  |
| COCCO[C@@H](Cn1c(=O)n(C(C)(C)C(=O)NC(C)C)c(=O)c2c(C)c(-n3nccn3)sc21)c1cc(F)ccc1C [Compound I-248] | 2 µg/mL (≈ 3.41 µM) | 2 µg/mL (≈ 3.41 µM) | ≥ 10 µg/mL | 0.4 µg/mL (≈ 0.682 µM) | 0.4 µg/mL (≈ 0.682 µM) | > 50 µg/mL | 10 µg/mL (≈ 17 µM) | ≥ 10 µg/mL |  |  |  |  |  |  |  |  |
| COCCO[C@@H](Cn1c(=O)n(C(C)(C)C(=O)N2CCCC2)c(=O)c2c(C)c(-n3nccn3)sc21)c1cc(F)ccc1C [Compound I-249] | 2 µg/mL (≈ 3.34 µM) | 2 µg/mL (≈ 3.34 µM) | ≥ 10 µg/mL | 2 µg/mL (≈ 3.34 µM) | 2 µg/mL (≈ 3.34 µM) | > 50 µg/mL | 10 µg/mL (≈ 16.7 µM) | > 50 µg/mL |  |  |  |  |  |  |  |  |
| COc1ccc(F)cc1[C@H](Cn1c(=O)n([C@H](C)C(=O)N(C)C(C)C)c(=O)c2c(C)c(-n3cccn3)sc21)OCCO [Compound I-250] | 2 µg/mL (≈ 3.4 µM) | 10 µg/mL (≈ 17 µM) | > 50 µg/mL | 2 µg/mL (≈ 3.4 µM) | 2 µg/mL (≈ 3.4 µM) | > 50 µg/mL | 2 µg/mL (≈ 3.4 µM) | > 50 µg/mL |  |  |  |  |  |  |  |  |
| COc1ccc(F)cc1[C@H](Cn1c(=O)n([C@@H](C)C(=O)NC(C)C)c(=O)c2c(C)c(-n3nccn3)sc21)OCC(C)(C)C#N [Compound I-254] | 2 µg/mL (≈ 3.27 µM) | > 50 µg/mL | ≥ 10 µg/mL | 2 µg/mL (≈ 3.27 µM) | > 50 µg/mL | > 50 µg/mL | > 50 µg/mL | > 50 µg/mL |  |  |  |  |  |  |  |  |
| COc1ccc(F)cc1[C@H](Cn1c(=O)n([C@H](C)C(N)=O)c(=O)c2c(C)c(-n3nccn3)sc21)OCC(C)(C)C#N [Compound I-255] | 2 µg/mL (≈ 3.51 µM) | ≥ 10 µg/mL | ≥ 10 µg/mL | 2 µg/mL (≈ 3.51 µM) | ≥ 10 µg/mL | > 50 µg/mL | 2 µg/mL (≈ 3.51 µM) | > 50 µg/mL |  |  |  |  |  |  |  |  |
| COc1ccc(F)cc1[C@H](Cn1c(=O)n([C@@H](C)C(N)=O)c(=O)c2c(C)c(-n3nccn3)sc21)OCC(C)(C)C#N [Compound I-256] |  |  |  |  |  |  |  |  | 50 µg/mL (≈ 87.8 µM) | 50 µg/mL (≈ 87.8 µM) | 50 µg/mL (≈ 87.8 µM) | 10 µg/mL (≈ 17.6 µM) | 50 µg/mL (≈ 87.8 µM) | > 50 µg/mL | 50 µg/mL (≈ 87.8 µM) | > 50 µg/mL |
| COc1ccc(F)cc1[C@H](Cn1c(=O)n(C(C)(C)C(=O)NC(C)C)c(=O)c2c(C)c(-n3cccn3)sc21)OCC#N [Compound I-257] | 2 µg/mL (≈ 3.43 µM) | 2 µg/mL (≈ 3.43 µM) | 50 µg/mL (≈ 85.8 µM) | 0.4 µg/mL (≈ 0.687 µM) | 0.4 µg/mL (≈ 0.687 µM) | > 50 µg/mL | 2 µg/mL (≈ 3.43 µM) | > 50 µg/mL |  |  |  |  |  |  |  |  |
| COc1ccc(F)cc1[C@H](Cn1c(=O)n(C(C)(C)C(=O)NC(C)C)c(=O)c2c(C)c(-n3nccn3)sc21)O[C@H]1CC[C@@H](O)CC1 [Compound I-264] | 0.4 µg/mL (≈ 0.622 µM) | 2 µg/mL (≈ 3.11 µM) | 2 µg/mL (≈ 3.11 µM) | 0.08 µg/mL (≈ 0.124 µM) | 0.4 µg/mL (≈ 0.622 µM) | 50 µg/mL (≈ 77.8 µM) | 0.08 µg/mL (≈ 0.124 µM) | > 50 µg/mL |  |  |  |  |  |  |  |  |
| COc1ccccc1[C@H](Cn1c(=O)n(C(C)(C)C(=O)NC(C)C)c(=O)c2c(C)c(-n3nccn3)sc21)O[C@H]1CC[C@@H](O)CC1 [Compound I-265] | 0.4 µg/mL (≈ 0.64 µM) | 2 µg/mL (≈ 3.2 µM) | 2 µg/mL (≈ 3.2 µM) | 0.08 µg/mL (≈ 0.128 µM) | 0.4 µg/mL (≈ 0.64 µM) | ≥ 50 µg/mL | 0.08 µg/mL (≈ 0.128 µM) | ≥ 50 µg/mL |  |  |  |  |  |  |  |  |
| COc1ccccc1[C@H](Cn1c(=O)n(C(C)(C)C(=O)NC(C)C)c(=O)c2c(C)c(-n3nccn3)sc21)OCCC(=O)NO [Compound I-266] | 2 µg/mL (≈ 3.26 µM) | 10 µg/mL (≈ 16.3 µM) | 10 µg/mL (≈ 16.3 µM) | 2 µg/mL (≈ 3.26 µM) | 2 µg/mL (≈ 3.26 µM) | ≥ 50 µg/mL | 2 µg/mL (≈ 3.26 µM) | > 50 µg/mL |  |  |  |  |  |  |  |  |
| Cc1c(-n2nccn2)sc2c1c(=O)n(C(C)(C)C(=O)NC1CCC1)c(=O)n2C[C@H](OC(C)C)c1cc(F)ccc1OCC#N [Compound I-267] | 0.4 µg/mL (≈ 0.641 µM) | 2 µg/mL (≈ 3.21 µM) | 2 µg/mL (≈ 3.21 µM) | 0.08 µg/mL (≈ 0.128 µM) | 0.4 µg/mL (≈ 0.641 µM) | > 50 µg/mL | 0.4 µg/mL (≈ 0.641 µM) | > 50 µg/mL |  |  |  |  |  |  |  |  |
